# Test results as given in patent publication US20040229816A1, “Anti-angiogenic and anti-tumoral properties of beta and gamma secretase inhibitors” (priority 2003, published 2004).
# “Also recorded” adds a separate entry of the source. Peptide text beside a SMILES is read from it. * marks the point of attachment. Cbz = O=C(OCc1ccccc1)*
# Tests used:
# [1] = tested on: human lung adenocarcinoma (A-549) xenografts; test: human lung adenocarcinoma A-549 xenografts in nude mice; format: in vivo; settings: Z-VLL-CHO 5 mg/Kg; for vascularization (vascular index) of A-549 tumors versus vehicle: DAPT 10 mg/Kg intraperitoneally, CD31/PECAM-1 immunostaining; for growth (tumor volume) of A-549 xenografts versus vehicle: intraperitoneally everyday for 12 days, DAPT 10 mg/Kg
# Method: FIG. 9a: Anti-tumoral effect of the γ-secretase inhibitor DAPT and of the β-secretase inhibitor Z-VLL-CHO on human lung adenocarcinoma (A-549) xenografts growth rates. A-549 cells (8.5×10^6) were injected subcutaneously into both flanks of 8-10 weeks-old nude mice. Mice were injected intraperitoneally with either the vehicle, 5 mg/Kg of body weight of the β-secretase inhibitor Z-VLL-CHO or 10 mg/Kg of body weight of the γ-secretase inhibitor DAPT, starting when tumors had reached a mean tumor volume of approximately 200 mm^3 (day 21 post implantation). Injections were given everyday for 12 days. […] FIG. 9b: Representative pictures of sections of lung adenocarcinoma tumors immunostained with CD31 antibodies. FIG. 9c: Histogram depicting the quantification of the vascularization of lung adenocarcinoma tumors.
# FIG. 10: Anti-tumoral effect of the γ-secretase inhibitor JLK-6 on human lung adenocarcinoma (A-549) xenografts growth rates. A-549 cells (8.5×10^6) were injected subcutaneously into both flanks of 8-10 weeks-old nude mice. Mice were injected intraperitoneally everyday from Day 16 (when the tumors reached a volume of approximately 150 mm^3) with either the vehicle or 5 mg/Kg of body weight of the γ-secretase inhibitor JLK-6.
# (§1) The human glioblastoma U-87 MG and human lung adenocarcinoma A-549 cell lines were obtained from American Tissue Culture Type Collection (Manassas, Va.) and were grown in DMEM containing 1×penicilline-streptomycine-fungizone and 10% fetal bovine serum at 37° C. in a humidified atmosphere of 5% CO2. Tumor cells (6×106) in 100 μl of PBS were inoculated subcutaneously into both flanks of 8-10-week-old female nude mice (Harland). Tumor volume (in mm^3) was determined using the formula (length×width^2)/2, where length was the longest axis and width the measurement at right angles to the length (Clarke et al. 2000). When the tumor volumes reached approximately 150 mm^3, animals were treated intraperitoneally everyday with 100 μl of 50% DMSO/H2O (vehicle group), 5 mg/Kg of body weight of Z-VLL-CHO (β-secretase inhibitor), 5 mg/Kg of JLK-6 (γ-secretase inhibitor) or with 10 mg/Kg of body weight of DAPT. Data were expressed as mean tumor volume±S.E for each treatment group.
# At the completion of the study, animals were humanely euthanized and tumors were harvested and fixed in paraformaldehyde 4% overnight at 4° C. After paraffin embedding in an automated tissue processing Sakura Tissue-Tek (E150) (Torrence, Calif.), samples were cut into 5 μm sections, deparafinized, and rehydrated through a graded series of alcohol. Sections were treated with 0.02 mg/ml Proteinase K (Gentra Systems, MN) for 15 minutes at 37° C. to allow for proper antigen retrieval, washed several times in PBS and incubated for 15 minutes in a 0.3% solution of hydrogen peroxide. Sections were blocked and then immunostained with a 1:40 dilution of a PECAM-1 antibody (BD-Pharmingen, CA) overnight at 4° C. in a humidification chamber. Vector ABC Kits (Vector Laboratories Inc, CA) where used following the manufacturer's instruction for the immunostaining. Quantification of tumor vascularization was performed using the stereological dissector method. Briefly, forty consecutive sections were taken from a randomly chosen starting point in each tumor. Five sections for each tumor were selected for stereology by taking one section every eight sections. A dissector counting frame was used with inclusion and exclusion lines throughout the reference area. Vessel count was performed at ×400 magnification with the use of an Olympus microscope connected to a digital video camera. Microvessels were counted in the dissector frame by an experimenter unaware of the different treatment conditions. For each tumor an average vessel count per area of dissector frame was determined. A vascular index was calculated by expressing the vessel count as a percentage of the vessel count in the vehicle treatment condition.
# explants of rat aortae = test: rat aortic ring model of angiogenesis (microvessel outgrowths); format: cell-based, Sprague Dawley rats; settings: for sprouting of microvessel outgrowths, overall / dose dependence: day 4, 5 and 6
# Method: Twenty four well tissue culture grade plates (Nalgene International, NY) were covered with […] of Matrigel (Becton-Dickinson, Bedford, Mass.) and allowed to gel for 30 min at 37° C., 5% CO2. Briefly, thoracic aortae were excised from 9 month-old Sprague Dawley rats. After removing the fibroadipose tissue, arteries were sectioned into 1 mm long cross sections, rinsed 5 times with EBM (Clonetics Corp.) containing 4% fetal bovine serum (FBS) and placed on the Matrigel coated wells. Artery rings were covered with an additional […] of Matrigel. After polymerization the Matrigel was covered with 1 mL of EBM (4% FBS) containing various doses of Z-VVL-CHO, OM99-2, P10-P4′statV, DAPT, or L-685,458 as indicated in the figure legends (the culture medium was changed every 3 days). Pictures were taken at day 4, 5 and 6 using a 4×objective. Microvessel outgrowth area was quantified using the Image Pro Plus software. Briefly, ring cultures were photographed using a digital video camera linked to an Olympus BX60 microscope. The outgrowth area was delineated and measured with the Image Pro Plus software by using a strategy of microvessel outgrowth detection based on difference in color intensities between the outgrowths, the Matrigel and the artery ring. The artery rings were manually selected and excluded from the area of measurement and the color intensity threshold was adjusted to selectively measure the area occupied by the microvessel outgrowths. Results were expressed as a percentage of the area occupied by microvessel outgrowths at day 4 in control condition.
# [2] = tested on: human glioblastoma (U-87 MG) xenografts; test: human glioblastoma U-87 MG xenografts in nude mice; format: in vivo; settings: Z-VLL-CHO 5 mg/Kg; for vascularization (vascular index) of U-87 MG tumors versus vehicle: DAPT 10 mg/Kg intraperitoneally, CD31/PECAM-1 immunostaining; for growth (tumor volume) of U-87 MG xenografts versus vehicle: intraperitoneally everyday for 9 days, DAPT 10 mg/Kg
# Method: FIG. 8a: Anti-tumoral effect of the γ-secretase inhibitor DAPT and of the β-secretase inhibitor Z-VLL-CHO on human glioblastoma (U-87 MG) xenografts growth rates. U-87 MG cells (6×10^6) were injected subcutaneously into both flanks of 8-10 weeks-old nude mice. Mice were injected intraperitoneally with either the vehicle, 5 mg/Kg of body weight of the β-secretase inhibitor Z-VLL-CHO or 10 mg/Kg of body weight of the γ-secretase inhibitor DAPT, starting when tumors had reached a mean tumor volume of approximately 140 mm^3 (day 8 post implantation). Injections were given everyday for 9 days. […] FIG. 8b: Representative pictures of sections of glioblastoma tumors immunostained with CD31 antibodies. FIG. 8c: Histogram depicting the estimation of glioblastoma tumor vascularization.
# as §1
# At the completion of the study, animals were humanely euthanized and tumors were harvested and fixed in paraformaldehyde 4% overnight at 4° C. After paraffin embedding in an automated tissue processing Sakura Tissue-Tek (E150) (Torrence, Calif.), samples were cut into 5 μm sections, deparafinized, and rehydrated through a graded series of alcohol. Sections were treated with 0.02 mg/ml Proteinase K (Gentra Systems, MN) for 15 minutes at 37° C. to allow for proper antigen retrieval, washed several times in PBS and incubated for 15 minutes in a 0.3% solution of hydrogen peroxide. […] Quantification of tumor vascularization was performed using the stereological dissector method. […] Microvessels were counted in the dissector frame by an experimenter unaware of the different treatment conditions. For each tumor an average vessel count per area of dissector frame was determined. A vascular index was calculated by expressing the vessel count as a percentage of the vessel count in the vehicle treatment condition.
# [3] = tested on: human brain endothelial cells; test: proliferation of human brain endothelial cells (Quick cell proliferation assay kit); format: cell-based; settings: various doses, 24 hours
# Method: (§2) Primary cultures of human brain endothelial cells were plated at a density of 10^4 cells/[…] of EBM 4% in 96 wells culture plates and treated with various doses of γ-secretase and β-secretase inhibitors as indicated in the figure legends. Following 24 hours in culture, the EBM covering the cells was removed and assayed for Lacticodehydrogenase (LDH) activity using the cytotoxicity detection kit (Roche Diagnostic Corporation, Ind.). Cells were covered with […] of EBM 4% and cellular proliferation measured using the Quick cell proliferation assay kit (Biovision Research Products, Calif.).
# [4] = tested on: human brain endothelial cells; test: viability of human brain endothelial cells (LDH activity in culture medium); format: cell-based; settings: 24 hours; for cellular toxicity / viability of human brain endothelial cells versus control: doses employed; for LDH activity in the culture medium, ANOVA main effect: various doses
# Method: as §2
SMILES,vascularization (vascular index) of A-549 tumors versus vehicle [1],growth (tumor volume) of A-549 xenografts versus vehicle [1],area covered by microvessel outgrowths versus control (explants of rat aortae; 5 μM),area covered by microvessel outgrowths versus control (explants of rat aortae; 10 μM),area covered by microvessel outgrowths versus control (explants of rat aortae; 20 μM),vascularization (vascular index) of U-87 MG tumors versus vehicle [2],growth (tumor volume) of U-87 MG xenografts versus vehicle [2],"proliferation of human brain endothelial cells, dose dependence [3]",cellular toxicity / viability of human brain endothelial cells versus control [4],"LDH activity in the culture medium, ANOVA main effect [4]","sprouting of microvessel outgrowths, overall / dose dependence (explants of rat aortae)","sprouting of microvessel outgrowths, overall / dose dependence (explants of rat aortae; listed as Z-VVL-CHO)"
"C[C@H](NC(=O)Cc1cc(F)cc(F)c1)C(=O)N[C@H](C(=O)OC(C)(C)C)c1ccccc1 [DAPT, N-[N-(3,5-difluorophenacetyl-L-alanyl)]-S-phenylglycine t-butyl ester]",appeared to be decreased; also recorded: significantly reduce the vascularization,potently suppressed the growth; also recorded: significantly inhibit the growth,appeared to stimulate,no significant difference,inhibit,decreased vascularization; also recorded: significantly reduce the vascularization,completely inhibited the growth; also recorded: inhibit the growth,dose dependently inhibited,without inducing cellular toxicity,significant main effect,,
"CC(C)C[C@@H](C=O)NC(=O)[C@H](CC(C)C)NC(=O)[C@@H](NC(=O)OCc1ccccc1)C(C)C [Z-VLL-CHO, N-benzyloxycarbony-val-leu-leucinal] (Cbz-Val-Leu-Leu-aldehyde)",appeared to be decreased; also recorded: significantly reduce the vascularization,potently suppressed the growth; also recorded: significantly inhibit the growth,,,,decreased vascularization; also recorded: significantly reduce the vascularization,completely inhibited the growth; also recorded: inhibit the growth,dose dependently inhibited,without affecting their viability,significant main effect,profoundly anti-angiogenic; also recorded: dose dependently and potently inhibited,dose-dependently inhibits
